Results published in patent publication US20250154115A1, “ARYLBENZOISOXAZOLE COMPOUNDS AS IP6K AND IPMK INHIBITORS AND METHODS OF USE THEREOF” (THE UNIVERSITY OF NORTH CAROLINA AT CHAPEL HILL, priority 2022, published 2025).

Experiments:
IP6K3 = IP6K3 (Homo sapiens (Human), UniProt Q96PC2); experiment: Enzyme-coupled assay of IP6K3 activity (Dipp1-coupled, malachite green Pi release); assay type: biochemical; conditions: enzyme-coupled assay; Table 4
IP6K1 = IP6K1 (Homo sapiens (Human), UniProt Q92551); experiment: Enzyme-coupled assay of IP6K1 activity (Dipp1-coupled, malachite green Pi release); assay type: biochemical; conditions: enzyme-coupled assay; Table 4
IP6K1, sequence (Q92551 whole entry): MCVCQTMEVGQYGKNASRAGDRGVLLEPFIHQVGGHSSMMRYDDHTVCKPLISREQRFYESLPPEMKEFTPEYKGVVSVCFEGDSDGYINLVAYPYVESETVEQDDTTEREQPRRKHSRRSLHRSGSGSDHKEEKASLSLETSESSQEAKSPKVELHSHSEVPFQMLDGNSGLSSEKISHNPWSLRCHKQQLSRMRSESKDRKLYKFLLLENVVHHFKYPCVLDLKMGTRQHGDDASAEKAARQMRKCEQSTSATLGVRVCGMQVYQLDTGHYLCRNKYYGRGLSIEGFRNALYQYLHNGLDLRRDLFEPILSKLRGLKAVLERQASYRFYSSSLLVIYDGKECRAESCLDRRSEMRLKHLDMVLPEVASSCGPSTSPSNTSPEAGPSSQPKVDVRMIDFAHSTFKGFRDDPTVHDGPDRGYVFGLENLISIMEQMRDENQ
Experimental: (§1) […] The cells were disrupted using a constant cell disruption system (Constant Systems) under 20 kPsi.
(§2) Pi release was determined with a malachite green colorimetric assay.^45 Where indicated, TNP (Cayman Chemical) was added to the assays (FIG. 2A-E).

IPMK = IPMK (Homo sapiens (Human), UniProt Q8NFU5); experiment: Enzyme-coupled assay, IPMK IC50; assay type: biochemical; conditions: enzyme-coupled assay; Table 4
IPMK, sequence (Q8NFU5 whole entry, species assumed): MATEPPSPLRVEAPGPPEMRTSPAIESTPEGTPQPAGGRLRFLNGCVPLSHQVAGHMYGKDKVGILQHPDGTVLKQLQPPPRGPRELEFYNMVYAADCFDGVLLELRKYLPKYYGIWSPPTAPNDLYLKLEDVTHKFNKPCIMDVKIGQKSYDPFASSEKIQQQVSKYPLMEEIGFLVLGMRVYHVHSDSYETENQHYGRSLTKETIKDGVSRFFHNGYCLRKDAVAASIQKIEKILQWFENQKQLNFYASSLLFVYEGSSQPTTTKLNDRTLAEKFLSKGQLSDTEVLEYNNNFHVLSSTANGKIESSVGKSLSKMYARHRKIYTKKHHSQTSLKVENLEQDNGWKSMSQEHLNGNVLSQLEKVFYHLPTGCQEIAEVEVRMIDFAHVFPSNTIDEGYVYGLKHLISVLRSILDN

IP6K2 = IP6K2 (Homo sapiens (Human), UniProt Q9UHH9); experiment: Enzyme-coupled assay of IP6K2 activity (Dipp1-coupled, malachite green Pi release); assay type: biochemical; conditions: enzyme-coupled assay; Table 4
IP6K2, sequence (Q9UHH9 whole entry): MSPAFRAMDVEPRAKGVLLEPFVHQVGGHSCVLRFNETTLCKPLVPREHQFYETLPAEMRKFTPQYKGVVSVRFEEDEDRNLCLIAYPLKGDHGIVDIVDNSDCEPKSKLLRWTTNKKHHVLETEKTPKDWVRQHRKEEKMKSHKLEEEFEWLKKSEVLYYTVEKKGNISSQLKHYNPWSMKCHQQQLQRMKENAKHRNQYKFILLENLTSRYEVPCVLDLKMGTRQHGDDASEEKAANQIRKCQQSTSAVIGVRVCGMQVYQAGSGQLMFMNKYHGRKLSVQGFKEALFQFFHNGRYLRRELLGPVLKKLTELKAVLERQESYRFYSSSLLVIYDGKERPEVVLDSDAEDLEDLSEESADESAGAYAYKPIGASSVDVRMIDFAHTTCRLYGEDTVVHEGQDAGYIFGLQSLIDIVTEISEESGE
Experimental: as §1, §2

diet-induced obese mice = conditions: cited from earlier work

IP6K3, sequence (Q96PC2 whole entry): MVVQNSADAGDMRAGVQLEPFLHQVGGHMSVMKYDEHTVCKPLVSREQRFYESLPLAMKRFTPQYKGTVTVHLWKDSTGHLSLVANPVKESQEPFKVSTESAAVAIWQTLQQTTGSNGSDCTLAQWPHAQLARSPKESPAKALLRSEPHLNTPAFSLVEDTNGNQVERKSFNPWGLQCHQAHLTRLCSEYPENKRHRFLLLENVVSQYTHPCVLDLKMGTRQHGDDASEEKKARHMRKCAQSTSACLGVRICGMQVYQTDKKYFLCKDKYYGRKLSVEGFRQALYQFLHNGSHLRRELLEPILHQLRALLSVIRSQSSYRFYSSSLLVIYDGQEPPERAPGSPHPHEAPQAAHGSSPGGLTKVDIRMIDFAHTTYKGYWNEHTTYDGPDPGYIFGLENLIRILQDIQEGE

Row | IC50 (IP6K3) [nM] | IC50 (IP6K1) [nM] | IC50 (IPMK) [nM] | IC50 (IP6K2) [nM] | SMILES | Effect of treatment on obesity, insulin resistance and fatty liver (diet-induced obese mice)
1 | 10 to 100 | 10 to 100 | 10 to 100 | 10 to 100 | Clc1cnc(Oc2cccc(-c3onc4ccc(-c5nnn[nH]5)cc34)c2)c(Cl)c1 [Compound 80] | 
2 | 100 to 1000 | 10 to 100 | 10 to 100 | 100 to 1000 | c1cc(OCCN2CCOCC2)cc(-c2onc3ccc(-c4nnn[nH]4)cc23)c1 [Compound 83] | 

Continued, compound first:

Row | SMILES | IC50 (IP6K3) [nM] | IC50 (IP6K1) [nM] | IC50 (IPMK) [nM] | IC50 (IP6K2) [nM] | Effect of treatment on obesity, insulin resistance and fatty liver (diet-induced obese mice)
3 | CN(C)CCOc1cccc(-c2onc3ccc(-c4nnn[nH]4)cc23)c1 [Compound 78] | 100 to 1000 | 100 to 1000 | < 10 | 100 to 1000 | 
4 | CN(C)CCOc1ccc(-c2onc3ccc(-c4nnn[nH]4)cc23)cc1 [Compound 79] | 100 to 1000 | 100 to 1000 | 1000 to 100000 | 100 to 1000 | 
5 | O=[N+]([O-])c1ccc(CNc2nc(NCc3cccc(C(F)(F)F)c3)nc3nc[nH]c23)cc1 [TNP, N2-(m-Trifluorobenzyl)-N6-(p-nitrobenzyl)purine] |  |  |  |  | ameliorates obesity, insulin resistance and fatty liver
